± gives the standard deviation of the averaged measurements.
Key:
[1] = compound: T1, Nc1nc2[nH]cnc2c(=S)[nH]1 [TIOGUANINE]; test: surviving fraction relative to DMSO-only wells; higher = less growth inhibition; settings: exposure time: 5 days
Summary of the method: (§1)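 Tumour cell lines in log phase were plated in 384-well plates at 250–500 cells per well, then, after 24 hours, exposed continuously for five days to inhibitors at 0.5, 1, 5, 10, 50, 100, 500 and 1000 nM. Viability came from CellTiter-Glo luminescence, and surviving fraction is that signal normalised to the median of DMSO-only wells. Plates were read after 10 minutes at room temperature, and each line, screened three times, was kept only when replicate Pearson r was >0.7 and median Z' was >0.3.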

[2] = compound: T2, CCCCCCCCCCCCCCCC(=O)Nc1ccn([C@@H]2O[C@H](CO)[C@@H](O)[C@@H]2C#N)c(=O)n1 [SAPACITABINE]; test: as above; settings: exposure time: 5 days
Summary of the method: as §1

[3] = compound: T3, CC[C@@H]1C(=O)N(C)c2cnc(Nc3ccc(C(=O)NC4CCN(C)CC4)cc3OC)nc2N1C1CCCC1 [BI-2536]; test: as above; settings: exposure time: 5 days
Summary of the method: as §1

[4] = compound: T4, CN(C)C/C=C/C(=O)Nc1cc2c(Nc3ccc(F)c(Cl)c3)ncnc2cc1O[C@H]1CCOC1 [AFATINIB]; test: as above; settings: exposure time: 5 days
Summary of the method: as §1

[5] = compound: T5, CC1(C)CC(=O)c2c(C(F)(F)F)nn(-c3ccc(C(N)=O)c(N[C@H]4CC[C@H](OC(=O)CN)CC4)c3)c2C1 [SNX-5422]; test: as above; settings: exposure time: 5 days
Summary of the method: as §1

[6] = compound: T6, C=CC(=O)Nc1cc2c(Nc3ccc(F)c(Cl)c3)ncnc2cc1OCCCN1CCOCC1 [CANERTINIB]; test: as above; settings: exposure time: 5 days
Summary of the method: as §1

[7] = compound: Cn1cc(C2=Nc3cc(NC(=O)C(N)C4CCCCC4)cc4c3C2=CNNC4=O)cn1; test: as above; settings: exposure time: 5 days
Summary of the method: as §1

[8] = compound: T7, CNC(=O)c1ccc(N2C(=S)N(c3ccc(C#N)c(C(F)(F)F)c3)C(=O)C2(C)C)cc1F [MDV3100]; test: as above; settings: exposure time: 5 days
Summary of the method: as §1

[9] = compound: T1, TIOGUANINE; test: area under dose-response curve of surviving fraction (unscaled, Aref=0) (surviving fraction x log10(nM)); higher = more resistant; settings: exposure time: 5 days; dose range 0.5-1000 nM
Summary of the method: (§2)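 Each tumour cell line was screened three times in 384-well plates, receiving eight inhibitor concentrations from 0.5 to 1000 nM for five days. CellTiter-Glo luminescence gave viability, normalised to DMSO-only wells. Using the drc R package, surviving fractions were fitted with 3-parameter logistic dose-response curves, and the unscaled activity area over log10 dose (Aref = 0) was taken as the area under the curve.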

[10] = compound: T2, SAPACITABINE; test: as above; settings: exposure time: 5 days; dose range 0.5-1000 nM
Summary of the method: as §2

[11] = compound: T3, BI-2536; test: as above; settings: exposure time: 5 days; dose range 0.5-1000 nM
Summary of the method: as §2

[12] = compound: T4, AFATINIB; test: as above; settings: exposure time: 5 days; dose range 0.5-1000 nM
Summary of the method: as §2

[13] = compound: T5, SNX-5422; test: as above; settings: exposure time: 5 days; dose range 0.5-1000 nM
Summary of the method: as §2

[14] = compound: T6, CANERTINIB; test: as above; settings: exposure time: 5 days; dose range 0.5-1000 nM
Summary of the method: as §2

[15] = compound: Cn1cc(C2=Nc3cc(NC(=O)C(N)C4CCCCC4)cc4c3C2=CNNC4=O)cn1; test: as above; settings: exposure time: 5 days; dose range 0.5-1000 nM
Summary of the method: as §2

[16] = compound: T7, MDV3100; test: as above; settings: exposure time: 5 days; dose range 0.5-1000 nM
Summary of the method: as §2

HELA CERVIX
surviving fraction ([1]; 0.5 nM): 0.998 ± 0.074 | surviving fraction ([1]; 1 nM): 1.03 ± 0.053 | surviving fraction ([1]; 5 nM): 0.994 ± 0.015 | surviving fraction ([1]; 10 nM): 0.997 ± 0.055 | surviving fraction ([1]; 50 nM): 1.06 ± 0.024 | surviving fraction ([1]; 100 nM): 1.14 ± 0.019 | surviving fraction ([1]; 500 nM): 1.14 ± 0.059 | surviving fraction ([1]; 1000 nM): 1.21 ± 0.056 | surviving fraction ([2]; 0.5 nM): 0.847 ± 0.031 | surviving fraction ([2]; 1 nM): 0.843 ± 0.033 | surviving fraction ([2]; 5 nM): 0.837 ± 0.027 | surviving fraction ([2]; 10 nM): 0.819 ± 0.018 | surviving fraction ([2]; 50 nM): 0.954 ± 0.064 | surviving fraction ([2]; 100 nM): 1.02 ± 0.013 | surviving fraction ([2]; 500 nM): 0.826 ± 0.066 | surviving fraction ([2]; 1000 nM): 0.794 ± 0.035 | surviving fraction ([3]; 0.5 nM): 1.05 ± 0.05 | surviving fraction ([3]; 1 nM): 1.048 ± 0.0063 | surviving fraction ([3]; 5 nM): 0.243 ± 0.048 | surviving fraction ([3]; 10 nM): 0.033 ± 0.00087 | surviving fraction ([3]; 50 nM): 0.0492 ± 0.0016 | surviving fraction ([3]; 100 nM): 0.0475 ± 0.0049 | surviving fraction ([3]; 500 nM): 0.11 ± 0.0041 | surviving fraction ([3]; 1000 nM): 0.133 ± 0.013 | surviving fraction ([4]; 0.5 nM): 1.08 ± 0.041 | surviving fraction ([4]; 1 nM): 1.09 ± 0.049 | surviving fraction ([4]; 5 nM): 1.06 ± 0.082 | surviving fraction ([4]; 10 nM): 1.02 ± 0.022 | surviving fraction ([4]; 50 nM): 1.19 ± 0.028 | surviving fraction ([4]; 100 nM): 1.2 ± 0.018 | surviving fraction ([4]; 500 nM): 1.22 ± 0.075 | surviving fraction ([4]; 1000 nM): 1.1 ± 0.045 | surviving fraction ([5]; 0.5 nM): 1.08 ± 0.049 | surviving fraction ([5]; 1 nM): 1.1 ± 0.031 | surviving fraction ([5]; 5 nM): 1.09 ± 0.071 | surviving fraction ([5]; 10 nM): 1.03 ± 0.028 | surviving fraction ([5]; 50 nM): 1.2 ± 0.016 | surviving fraction ([5]; 100 nM): 0.672 ± 0.081 | surviving fraction ([5]; 500 nM): 0.228 ± 0.028 | surviving fraction ([5]; 1000 nM): 0.113 ± 0.016 | surviving fraction ([6]; 0.5 nM): 0.9167 ± 0.0022 | surviving fraction ([6]; 1 nM): 0.8778 ± 0.0083 | surviving fraction ([6]; 5 nM): 0.888 ± 0.024 | surviving fraction ([6]; 10 nM): 0.865 ± 0.023 | surviving fraction ([6]; 50 nM): 1.04 ± 0.084 | surviving fraction ([6]; 100 nM): 0.979 ± 0.074 | surviving fraction ([6]; 500 nM): 1.02 ± 0.074 | surviving fraction ([6]; 1000 nM): 1 ± 0.039 | surviving fraction ([7]; 0.5 nM): 1.1 ± 0.028 | surviving fraction ([7]; 1 nM): 1.1 ± 0.059 | surviving fraction ([7]; 5 nM): 1.11 ± 0.045 | surviving fraction ([7]; 10 nM): 1.01 ± 0.013 | surviving fraction ([7]; 50 nM): 1.11 ± 0.082 | surviving fraction ([7]; 100 nM): 1.15 ± 0.035 | surviving fraction ([7]; 500 nM): 1.15 ± 0.038 | surviving fraction ([7]; 1000 nM): 1.09 ± 0.046 | surviving fraction ([8]; 0.5 nM): 0.931 ± 0.035 | surviving fraction ([8]; 1 nM): 0.923 ± 0.0096 | surviving fraction ([8]; 5 nM): 0.929 ± 0.023 | surviving fraction ([8]; 10 nM): 0.888 ± 0.036 | surviving fraction ([8]; 50 nM): 0.999 ± 0.034 | surviving fraction ([8]; 100 nM): 1.02 ± 0.065 | surviving fraction ([8]; 500 nM): 1.08 ± 0.069 | surviving fraction ([8]; 1000 nM): 1.03 ± 0.047 | area under dose-response curve [9]: 3.36 | area under dose-response curve [10]: 2.94 | area under dose-response curve [11]: 1 | area under dose-response curve [12]: 3.69 | area under dose-response curve [13]: 2.79 | area under dose-response curve [14]: 3.11 | area under dose-response curve [15]: 3.79 | area under dose-response curve [16]: 3.16

HOS BONE
surviving fraction ([1]; 0.5 nM): 1 ± 0.011 | surviving fraction ([1]; 1 nM): 0.9977 ± 0.0091 | surviving fraction ([1]; 5 nM): 1.004 ± 0.0085 | surviving fraction ([1]; 10 nM): 1.02 ± 0.032 | surviving fraction ([1]; 50 nM): 1.05 ± 0.033 | surviving fraction ([1]; 100 nM): 1.038 ± 0.0061 | surviving fraction ([1]; 500 nM): 0.75 ± 0.037 | surviving fraction ([1]; 1000 nM): 0.612 ± 0.016 | surviving fraction ([2]; 0.5 nM): 0.899 ± 0.01 | surviving fraction ([2]; 1 nM): 0.912 ± 0.0076 | surviving fraction ([2]; 5 nM): 0.927 ± 0.018 | surviving fraction ([2]; 10 nM): 0.911 ± 0.024 | surviving fraction ([2]; 50 nM): 0.975 ± 0.041 | surviving fraction ([2]; 100 nM): 0.831 ± 0.026 | surviving fraction ([2]; 500 nM): 0.209 ± 0.035 | surviving fraction ([2]; 1000 nM): 0.224 ± 0.007 | surviving fraction ([3]; 0.5 nM): 1.02 ± 0.015 | surviving fraction ([3]; 1 nM): 0.979 ± 0.008 | surviving fraction ([3]; 5 nM): 0.203 ± 0.044 | surviving fraction ([3]; 10 nM): 0.031 ± 0.0027 | surviving fraction ([3]; 50 nM): 0.0337 ± 0.0029 | surviving fraction ([3]; 100 nM): 0.023 ± 0.001 | surviving fraction ([3]; 500 nM): 0.018 ± 0.001 | surviving fraction ([3]; 1000 nM): 0.0207 ± 0.00058 | surviving fraction ([4]; 0.5 nM): 1.01 ± 0.027 | surviving fraction ([4]; 1 nM): 1.03 ± 0.012 | surviving fraction ([4]; 5 nM): 1.017 ± 0.0066 | surviving fraction ([4]; 10 nM): 1.01 ± 0.016 | surviving fraction ([4]; 50 nM): 1.02 ± 0.014 | surviving fraction ([4]; 100 nM): 1.02 ± 0.023 | surviving fraction ([4]; 500 nM): 0.979 ± 0.048 | surviving fraction ([4]; 1000 nM): 0.858 ± 0.025 | surviving fraction ([5]; 0.5 nM): 1.01 ± 0.015 | surviving fraction ([5]; 1 nM): 1.04 ± 0.039 | surviving fraction ([5]; 5 nM): 1.08 ± 0.016 | surviving fraction ([5]; 10 nM): 1.04 ± 0.031 | surviving fraction ([5]; 50 nM): 0.028 ± 0.001 | surviving fraction ([5]; 100 nM): 0.051 ± 0.0078 | surviving fraction ([5]; 500 nM): 0.0377 ± 0.0011 | surviving fraction ([5]; 1000 nM): 0.0417 ± 0.0021 | surviving fraction ([6]; 0.5 nM): 0.955 ± 0.029 | surviving fraction ([6]; 1 nM): 0.923 ± 0.011 | surviving fraction ([6]; 5 nM): 0.932 ± 0.031 | surviving fraction ([6]; 10 nM): 0.915 ± 0.019 | surviving fraction ([6]; 50 nM): 1.01 ± 0.012 | surviving fraction ([6]; 100 nM): 1.01 ± 0.026 | surviving fraction ([6]; 500 nM): 0.935 ± 0.011 | surviving fraction ([6]; 1000 nM): 0.914 ± 0.014 | surviving fraction ([7]; 0.5 nM): 1.024 ± 0.0086 | surviving fraction ([7]; 1 nM): 1.03 ± 0.038 | surviving fraction ([7]; 5 nM): 1.04 ± 0.041 | surviving fraction ([7]; 10 nM): 1.02 ± 0.016 | surviving fraction ([7]; 50 nM): 0.908 ± 0.052 | surviving fraction ([7]; 100 nM): 0.524 ± 0.05 | surviving fraction ([7]; 500 nM): 0.0407 ± 0.0015 | surviving fraction ([7]; 1000 nM): 0.0373 ± 0.0015 | surviving fraction ([8]; 0.5 nM): 1.007 ± 0.0093 | surviving fraction ([8]; 1 nM): 0.9937 ± 0.0011 | surviving fraction ([8]; 5 nM): 1.01 ± 0.017 | surviving fraction ([8]; 10 nM): 0.982 ± 0.0062 | surviving fraction ([8]; 50 nM): 1.05 ± 0.022 | surviving fraction ([8]; 100 nM): 1.05 ± 0.021 | surviving fraction ([8]; 500 nM): 1.05 ± 0.017 | surviving fraction ([8]; 1000 nM): 1.015 ± 0.0067 | area under dose-response curve [9]: 3.16 | area under dose-response curve [10]: 2.63 | area under dose-response curve [11]: 0.874 | area under dose-response curve [12]: 3.28 | area under dose-response curve [13]: 1.72 | area under dose-response curve [14]: 3.14 | area under dose-response curve [15]: 2.35 | area under dose-response curve [16]: 3.36

From the supplement of paper PMC6045584
